Measurements taken from patent US4046910A, “Dosage schedule” (The Upjohn Company, priority 1976, dated 1977).
Counter-ions that a name gives are not always drawn.

Key:
[1] = system: allergic manifestations caused by antigen-antibody interaction; details: tris(hydroxymethyl)aminomethane salts; U.S. Ser. No. 233,772 and 261,524; cited from earlier work
[2] = system: rat passive cutaneous anaphylaxis; assay: rat passive cutaneous anaphylaxis (PCA) test; assay type: in vivo, rat (female Sprague-Dawley); set-up: key to Spot Score: total detectable spots divided by number of animals; details: for % Inhibition in Rat PCA: 48 hour sensitization
Source text: The compound under review is first tested in the rat passive cutaneous anaphylaxis test system. This test is employed to determine if the compound does inhibit allergic manifestations. A DSCG biologue will inhibit allergic manifestations. The anti-allergy activity of DSCG biologues vary.
Female Sprague-Dawley 250 gm. rats are skin-sensitized with rat anti-ovalbumin homocytotropic antibody that is heat labile and has a passive cutaneous anaphylaxis titer of (1:128). After a 72-hour latency period, the animals are challenged i.v. with a 4 mg. ovalbumin (OA) + 5 mg. Evans blue dye. Thirty minutes later the extravascular bluing that results from antigen antibody combination at the skin site is read. Antibody dilutions are used such that in control animals a 4 mm spot in the lowest detectable spot, and 4 or 5 lower dilutions are used to give a range of antibody in each animal. Four to five animals are used for each variable in the experiment. Percent inhibition of the PCA assay is calculated by comparing the spot scores of DSCG treated rats with the spot scores of control rats. The spot score is the total number of detectable spots over the number of animals.
DSCG Priming Treatment: Passively sensitized rats are injected i.v. 2.0 hours before antigen challenge i.v. Two hours after an i.v. priming dose of 10 mg./kg. DSCG, the rats are challenged with antigen alone.
The time course of the effective life of DSCG in rats is shown in Table I. DSCG was administered i.p. and was followed by i.v. challenge with 4 mg. ovalbumin and 5 mg. of Evans Blue. Spot score was calculated 30 minutes later from a total of four animals for each time point.
The animals are rested 2 hours between primary i.v. DSCG injection and i.v. antigen challenge, including secondary DSCG dosing. In view of Table I, this time period is of such a length that the effect from the initial dose of DSCG is not a significant factor.
The effect of a time lag between priming doses and secondary doses with regard to the drug sparing effect and the responsiveness of the treated mammal to further treatment with DSCG or a DSCG biologue is shown in Table III. Rats were injected once daily with 10 mg./kg. DSCG for three days. Control rats were also injected with 1.0 ml. of saline at the same time. Twenty and 48 hours after the last dose of DSCG in the three dose series all rats were injected with DSCG. 4 mg. ovalbumin, and 5 mg. of Evans Blue dye.
Th sparing effect using a DSCG biologue, the tris(hydroxymethyl)aminomethane salt of 10-chloro-1,4,6,9-tetrahydro-4,6-dioxopyrido[3,2-g]quinoline-2,8-dicarboxylic acid, referred to as Compound 10 Cl in this Example, is shown in the rat PCA of Table IV. When using this compound in a priming situation, 2.0 mg./kg., 1.0 mg./kg., 0.025 mg./kg. and 0.01 mg./kg. give inhibitions of 93, 86, 44 and 0% respectively. The data of Table IV are obtained in the usual manner except that a 48 hour instead of a 72 hour sensitization period was used.

[3] = system: allergic and anaphylactic conditions; details: cited from earlier work
[4] = man; cited from earlier work
[5] = system: mediators of anaphylaxis; details: cited from earlier work
[6] = 10 mg./kg. i.p., 5 min before i.v. challenge
[7] = 10 mg./kg. i.p., 7 min before i.v. challenge
[8] = 10 mg./kg. i.p., 10 min before i.v. challenge
[9] = 10 mg./kg. i.p., 15 min before i.v. challenge
[10] = 10 mg./kg. i.p., 18 min before i.v. challenge
[11] = 10 mg./kg. i.p., 20 min before i.v. challenge
[12] = 10 mg./kg. i.p., 25 min before i.v. challenge
[13] = 10 mg./kg. i.p., 30 min before i.v. challenge
[14] = 10 mg./kg. i.p., 60 min before i.v. challenge

For `Cc1c2[nH]c(C(=O)O)cc(=O)c2cc2c(=O)cc(C(=O)O)[nH]c12` [1,4,6,9-tetrahydro-10-methyl-4,6-dioxopyrido[3,2-g]quinoline-2,8-dicarboxylic acid], the “ability to prophylactically protect against allergic manifestations” value (“ability to prophylactically protect” below) [1] is given as “have this ability to prophylactically protect against allergic manifestations”.

With `O=C(O)c1cc(=O)c2cc3c(=O)cc(C(=O)O)[nH]c3c(Cl)c2[nH]1` [Compound 10 Cl, tris(hydroxymethyl)aminomethane salt of 10-chloro-1,4,6,9-tetrahydro-4,6-dioxopyrido[3,2-g]quinoline-2,8-dicarboxylic acid] the sparing ([2]; 0.01 mg./kg. maintenance dose, primed with 2.0 or 1.0 mg./kg.) was “sparing is seen”, the “inhibition in a priming situation” value ([2]; 0.01 mg./kg. priming) was 0% and the “inhibition in a priming situation” value ([2]; 0.025 mg./kg. priming) was 44%. For the same compound, the “inhibition in a priming situation” value ([2]; 1.0 mg./kg. priming) was 86%, the “inhibition in a priming situation” value ([2]; 2.0 mg./kg. priming) was 93% and the “% Inhibition in Rat PCA” value ([2]; priming 0.01 mg./kg., secondary 0.01 mg./kg.) was 6%. The “% Inhibition in Rat PCA” value ([2]; priming 0.01 mg./kg., secondary 0.025 mg./kg.) was 44%, the “% Inhibition in Rat PCA” value ([2]; priming 0.01 mg./kg., secondary 1.0 mg./kg.) was 71% and the “% Inhibition in Rat PCA” value ([2]; priming 0.01 mg./kg., secondary 2.0 mg./kg.) was 80%. For the same compound, the “% Inhibition in Rat PCA” value ([2]; priming 0.025 mg./kg., secondary 0.01 mg./kg.) was 6%, the “% Inhibition in Rat PCA” value ([2]; priming 0.025 mg./kg., secondary 0.025 mg./kg.) was 23% and the “% Inhibition in Rat PCA” value ([2]; priming 0.025 mg./kg., secondary 1.0 mg./kg.) was 52%. For the same compound, the “% Inhibition in Rat PCA” value ([2]; priming 0.025 mg./kg., secondary 2.0 mg./kg.) was 62%, the “% Inhibition in Rat PCA” value ([2]; priming 1.0 mg./kg., secondary 0.01 mg./kg.) was 44% and the “% Inhibition in Rat PCA” value ([2]; priming 1.0 mg./kg., secondary 0.025 mg./kg.) was 44%. For the same compound, the “% Inhibition in Rat PCA” value ([2]; priming 1.0 mg./kg., secondary 1.0 mg./kg.) was 44%, the “% Inhibition in Rat PCA” value ([2]; priming 1.0 mg./kg., secondary 2.0 mg./kg.) was 52% and the “% Inhibition in Rat PCA” value ([2]; priming 2.0 mg./kg., secondary 0.01 mg./kg.) was 52%. For the same compound, the “% Inhibition in Rat PCA” value ([2]; priming 2.0 mg./kg., secondary 0.025 mg./kg.) was 33%, the “% Inhibition in Rat PCA” value ([2]; priming 2.0 mg./kg., secondary 1.0 mg./kg.) was 14% and the “% Inhibition in Rat PCA” value ([2]; priming 2.0 mg./kg., secondary 2.0 mg./kg.) was 6%. For the same compound, the “ability to prophylactically protect” value [1] was “have this ability to prophylactically protect against allergic manifestations”.

In the case of `O=C(O)c1cc(=O)c2c(OCC(O)COc3cccc4oc(C(=O)O)cc(=O)c34)cccc2o1` [DSCG, disodium salt of 1,3-bis(2-carboxychromon-5-yloxy)-2-hydroxypropane], the “inhibition given as a priming dose” value ([2]; 0.1 mg. priming dose) is reported as “does not provide any inhibition”, the “% Inhibition” value [2, 6] is reported as 26% and the “Spot Score” value [2, 6] is reported as 1.67. For the same compound, the “% Inhibition” value [2, 7] was 26%, the “Spot Score” value [2, 7] was 1.67 and the “% Inhibition” value [2, 8] was 73%. The “Spot Score” value [2, 8] was 0.66, the “% Inhibition” value [2, 9] was 51% and the “Spot Score” value [2, 9] was 1.00. The “% Inhibition” value [2, 10] was 44%, the “Spot Score” value [2, 10] was 1.25 and the “% Inhibition” value [2, 11] was 33%. For the same compound, the “Spot Score” value [2, 11] was 1.50, the “% Inhibition” value [2, 12] was 26% and the “Spot Score” value [2, 12] was 1.67. For the same compound, the “% Inhibition” value [2, 13] was 11%, the “Spot Score” value [2, 13] was 2.0 and the “% Inhibition” value [2, 14] was 11%. The “Spot Score” value [2, 14] was 2.0, the “persistence of inhibiting effect” value ([2]; 10 mg./kg. i.p., in 30 minutes) was “most of the inhibiting effect of DSCG has disappeared” and the “inhibitory effect in rat PCA after priming dose alone” value ([2]; 10 mg./kg. i.v. priming, antigen challenge i.v. 2 hours later) was “No inhibitory effects are observed”. For the same compound, the “inhibition given as a priming dose” value ([2]; 10 mg./kg. priming dose) was 79%, the “% Inhibition” value ([2]; 10 mg./kg., i.v. at challenge) was 100% and the “Spot Score” value ([2]; 10 mg./kg., i.v. at challenge) was 0. For the same compound, the “drug sparing effect from the priming dosage” value ([2]; 20 hours post priming) was “present at 20 hours post priming”, the “drug sparing effect from the priming dosage” value ([2]; 48 hours post priming) was “has disappeared at 48 hours post priming” and the “effect of high priming doses on high secondary doses” value ([2]; high doses in priming and secondary dose situation) was “inhibit the action of high doses of DSCG in the secondary dose situation”. The “Inhibition in Rat PCA” value ([2]; priming 0.1 mg./kg. i.v., secondary DSCG 0.1 mg./kg. with antigen 2 hours later) was 2%, the “Inhibition in Rat PCA” value ([2]; priming 0.1 mg./kg. i.v., secondary DSCG 1.0 mg./kg. with antigen 2 hours later) was 39% and the “Inhibition in Rat PCA” value ([2]; priming 0.1 mg./kg. i.v., secondary DSCG 10 mg./kg. with antigen 2 hours later) was 79%. The “Inhibition in Rat PCA” value ([2]; priming 1.0 mg./kg. i.v., secondary DSCG 0.1 mg./kg. with antigen 2 hours later) was 27%, the “Inhibition in Rat PCA” value ([2]; priming 1.0 mg./kg. i.v., secondary DSCG 1.0 mg./kg. with antigen 2 hours later) was 39% and the “Inhibition in Rat PCA” value ([2]; priming 1.0 mg./kg. i.v., secondary DSCG 10 mg./kg. with antigen 2 hours later) was 98%. For the same compound, the “Inhibition in Rat PCA” value ([2]; priming 10 mg./kg. i.v., secondary DSCG 0.1 mg./kg. with antigen 2 hours later) was 39%, the “Inhibition in Rat PCA” value ([2]; priming 10 mg./kg. i.v., secondary DSCG 1.0 mg./kg. with antigen 2 hours later) was 51% and the “Inhibition in Rat PCA” value ([2]; priming 10 mg./kg. i.v., secondary DSCG 10 mg./kg. with antigen 2 hours later, mean percent from 15 animals) was 51%. The “% Inhibition in the Rat PCA” value ([2]; saline i.v. 3 times, then DSCG dose 0.1) was 0%, the “% Inhibition in the Rat PCA” value ([2]; saline i.v. 3 times, then DSCG dose 1.0) was 11% and the “% Inhibition in the Rat PCA” value ([2]; saline i.v. 3 times, then DSCG dose 5.0) was 47%. For the same compound, the “% Inhibition in the Rat PCA” value ([2]; saline i.v. 3 times, then DSCG dose 10) was 82%, the “% Inhibition in the Rat PCA” value ([2]; secondary DSCG dose 0, 48 hours after last of three daily 10 mg./kg. DSCG) was 0% and the “% Inhibition in the Rat PCA” value ([2]; secondary DSCG dose 0.05, 20 hours after last of three daily 10 mg./kg. DSCG) was 47%. The “% Inhibition in the Rat PCA” value ([2]; secondary DSCG dose 0.05, 48 hours after last of three daily 10 mg./kg. DSCG) was 2%, the “% Inhibition in the Rat PCA” value ([2]; secondary DSCG dose 0.1, 20 hours after last of three daily 10 mg./kg. DSCG) was 52% and the “% Inhibition in the Rat PCA” value ([2]; secondary DSCG dose 0.1, 48 hours after last of three daily 10 mg./kg. DSCG) was 0%. The “% Inhibition in the Rat PCA” value ([2]; secondary DSCG dose 1.0, 20 hours after last of three daily 10 mg./kg. DSCG) was 58%, the “% Inhibition in the Rat PCA” value ([2]; secondary DSCG dose 5.0, 20 hours after last of three daily 10 mg./kg. DSCG) was 20% and the “% Inhibition in the Rat PCA” value ([2]; secondary DSCG dose 5.0, 48 hours after last of three daily 10 mg./kg. DSCG) was 65%. The “% Inhibition in the Rat PCA” value ([2]; secondary DSCG dose 10, 20 hours after last of three daily 10 mg./kg. DSCG) was 20%, the “% Inhibition in the Rat PCA” value ([2]; secondary DSCG dose 10, 48 hours after last of three daily 10 mg./kg. DSCG) was 73% and the “relief from allergic and anaphylactic conditions” value ([3]; administered in a prophylactic manner) was “provides relief from allergic and anaphylactic conditions”. For the same compound, the “inhibition of allergic manifestations on continuing administration” value ([3]; same dose level, significant number of individuals) was “lower levels of inhibition which may be clinically ineffective” and the serum half life [4] was “approximately 2 minutes”.

In the case of `CCCCC[C@H](O)/C=C/[C@H]1[C@H](O)CC(=O)[C@@H]1CCCCCCC(=O)O` [Prostaglandin E1], the “response in the DSCG biologue tests” value [5] is listed as “respond appropriately to some of the tests but not all of them”.

For `CCCCC[C@H](O)/C=C/[C@H]1[C@H](O)CC(=O)[C@@H]1C/C=C\CCCC(=O)O` [Prostaglandin E2], the “response in the DSCG biologue tests” value [5] is given as “respond appropriately to some of the tests but not all of them”.

In the case of `O=C(O)c1cc(=O)c2cc(-c3ccc4[nH]c(C(=O)O)cc(=O)c4c3)ccc2[nH]1` [tris(hydroxymethyl)aminomethane salt of 1,1',4,4'-tetrahydro-4,4'-dioxo[6,6'-biquinoline]-2,2'-dicarboxylic acid], the “ability to prophylactically protect” value [1] is given as “have this ability to prophylactically protect against allergic manifestations”.
